Measured values taken from patent US12110276B2 (Genentech, Inc., priority 2021, dated 2024).

Assays:
[1] = biological target: TEAD1 (Homo sapiens (Human), UniProt P28347); experiment: TR-FRET lipid pocket probe competition assay (Lipid HTRF), TEAD1; type: binding; details: 4 hours pre-incubation; read-out: Lipid HTRF TEAD1 IC50;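 also: His-tagged TEAD1 with biotinylated probe, detected via Europium anti-His and XL665 streptavidin, probe displacement lowers TR-FRET signal, IC50 from four-parameter nonlinear fit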
[2] = biological target: TEAD3 (Homo sapiens (Human), UniProt Q99594); experiment: TR-FRET lipid pocket probe competition assay (Lipid HTRF), TEAD3; type: binding; details: 4 hours pre-incubation; read-out: Lipid HTRF TEAD3 IC50
[3] = biological target: TEAD4 (Homo sapiens (Human), UniProt Q15561); experiment: TR-FRET lipid pocket probe competition assay (Lipid HTRF), TEAD4; type: binding; details: 4 hours pre-incubation; read-out: Lipid HTRF TEAD4 IC50;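 also: His-tagged TEAD4 with biotinylated lipid-pocket probe, read by Europium anti-His and XL665 streptavidin, where probe displacement lowers the TR-FRET signal, IC50 from a four-parameter fit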
Procedure: His-tagged TEAD proteins are pre-incubated with TEAD project compounds for 30 minutes or 4 hours at room temperature. Biotinylated lipid pocket probes are then added to the TEAD/Compound mixture and incubated for 60 minutes at room temperature. The lipid pocket probe competes with the test compound for the TEAD lipid pocket until equilibrium is reached. After 60 minutes, Europium labelled anti-His (Perkin Elmer #AD0110) and XL665 labelled streptavidin (CIS Bio 610SAXAC) are added to the TEAD/test compound/lipid pocket mixture and incubated for 30 minutes or 4 hours. […] If a TEAD lipid pocket binder such as binds and displaces the lipid pocket probe, the disruption of the TEAD:probe interaction results in a decrease in TR-FRET signal. The potency of compounds as TEAD lipid pocket binders is determined by IC50 value generated using a non-linear 4 parameter curve fit.

[4] = biological target: TEAD2 (Homo sapiens (Human), UniProt Q15562);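 also: TR-FRET competition assay with His-tagged TEAD protein and a biotinylated lipid pocket probe, compound pre-incubated 30 min or 4 h at room temperature, displacement lowers signal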
TEAD2, sequence (Q15562 whole entry, species assumed): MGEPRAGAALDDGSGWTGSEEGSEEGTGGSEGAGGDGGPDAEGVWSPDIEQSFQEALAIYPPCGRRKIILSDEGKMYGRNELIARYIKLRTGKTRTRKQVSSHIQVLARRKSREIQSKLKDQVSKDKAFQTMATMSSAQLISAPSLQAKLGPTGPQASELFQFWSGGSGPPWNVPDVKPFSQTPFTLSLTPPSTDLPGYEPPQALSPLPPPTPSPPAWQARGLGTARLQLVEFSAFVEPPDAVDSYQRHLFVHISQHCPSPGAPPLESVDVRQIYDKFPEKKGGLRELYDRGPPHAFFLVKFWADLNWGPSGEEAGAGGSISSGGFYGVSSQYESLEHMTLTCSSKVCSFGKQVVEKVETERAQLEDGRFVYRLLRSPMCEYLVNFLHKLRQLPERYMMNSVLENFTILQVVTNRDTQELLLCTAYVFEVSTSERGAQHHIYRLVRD
Procedure: His-tagged TEAD proteins are pre-incubated with TEAD project compounds for 30 minutes or 4 hours at room temperature. Biotinylated lipid pocket probes are then added to the TEAD/Compound mixture and incubated for 60 minutes at room temperature. The lipid pocket probe competes with the test compound for the TEAD lipid pocket until equilibrium is reached. After 60 minutes, Europium labelled anti-His (Perkin Elmer #AD0110) and XL665 labelled streptavidin (CIS Bio 610SAXAC) are added to the TEAD/test compound/lipid pocket mixture and incubated for 30 minutes or 4 hours. TR-FRET values are then measured using an EnVision multi-label plate reader (Perkin Elmer Cat #2104-0010A.) If the lipid pocket probe binds to TEAD as expected, a TR-FRET signal results from the proximity of anti-His Eu and XL665. If a TEAD lipid pocket binder such as binds and displaces the lipid pocket probe, the disruption of the TEAD:probe interaction results in a decrease in TR-FRET signal. The potency of compounds as TEAD lipid pocket binders is determined by IC50 value generated using a non-linear 4 parameter curve fit.

TEAD4, sequence (Q15561 whole entry, species assumed): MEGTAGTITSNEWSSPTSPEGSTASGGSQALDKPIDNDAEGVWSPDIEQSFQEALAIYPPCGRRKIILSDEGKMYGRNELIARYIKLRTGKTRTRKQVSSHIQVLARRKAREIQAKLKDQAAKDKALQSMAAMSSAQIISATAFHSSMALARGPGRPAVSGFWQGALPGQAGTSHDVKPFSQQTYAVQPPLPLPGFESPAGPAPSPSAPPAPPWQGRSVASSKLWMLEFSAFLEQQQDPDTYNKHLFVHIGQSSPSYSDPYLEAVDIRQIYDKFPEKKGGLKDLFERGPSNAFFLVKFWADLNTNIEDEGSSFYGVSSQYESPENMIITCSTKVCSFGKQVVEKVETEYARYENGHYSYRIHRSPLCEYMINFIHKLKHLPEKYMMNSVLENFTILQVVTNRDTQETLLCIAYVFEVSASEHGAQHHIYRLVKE
TEAD1, sequence (P28347 whole entry, species assumed): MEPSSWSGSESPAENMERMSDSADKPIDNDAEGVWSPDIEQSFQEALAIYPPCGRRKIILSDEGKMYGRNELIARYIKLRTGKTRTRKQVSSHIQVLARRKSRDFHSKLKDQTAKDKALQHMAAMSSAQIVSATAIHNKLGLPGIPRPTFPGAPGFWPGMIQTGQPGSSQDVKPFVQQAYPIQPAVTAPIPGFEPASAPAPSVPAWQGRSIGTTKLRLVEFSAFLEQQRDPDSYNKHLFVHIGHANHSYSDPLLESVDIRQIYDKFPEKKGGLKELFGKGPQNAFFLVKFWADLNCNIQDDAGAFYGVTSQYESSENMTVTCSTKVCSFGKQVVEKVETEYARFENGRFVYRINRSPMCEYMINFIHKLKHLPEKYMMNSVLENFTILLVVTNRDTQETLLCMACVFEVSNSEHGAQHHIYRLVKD
TEAD3, sequence (Q99594 whole entry, species assumed): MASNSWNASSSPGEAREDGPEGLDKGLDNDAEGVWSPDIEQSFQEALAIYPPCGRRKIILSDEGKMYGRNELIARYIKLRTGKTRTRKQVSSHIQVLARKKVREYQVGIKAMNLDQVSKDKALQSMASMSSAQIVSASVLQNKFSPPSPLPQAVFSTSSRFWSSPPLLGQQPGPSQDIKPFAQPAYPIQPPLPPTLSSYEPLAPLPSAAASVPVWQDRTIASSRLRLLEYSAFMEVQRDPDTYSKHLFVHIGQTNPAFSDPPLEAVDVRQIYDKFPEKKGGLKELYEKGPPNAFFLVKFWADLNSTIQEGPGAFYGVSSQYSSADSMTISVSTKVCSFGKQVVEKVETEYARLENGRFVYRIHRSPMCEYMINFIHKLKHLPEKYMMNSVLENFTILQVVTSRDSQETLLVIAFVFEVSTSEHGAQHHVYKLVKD

Question: Which results are given for `C=C(C)S(=O)(=O)N1CC(c2nn(-c3ccc(OC(F)(F)F)cc3)c3nccc([C@@H](O)CO)c23)C1` [Compound 160, (R)-1-(3-(1-(prop-1-en-2-ylsulfonyl)azetidin-3-yl)-1-(4-(trifluoromethoxy)phenyl)-1H-pyrazolo[3,4-b]pyridin-4-yl)ethane-1,2-diol]?
Answer: IC50 [1]: 76 nM; IC50 [2]: 1200 nM; IC50 [3]: 43 nM; IC50 [4]: 15 nM

Question: What does the source list for `C=C(F)C(=O)N1CC(c2nn(-c3ccc(OC(F)(F)F)cc3)c3nccc(N4CC([C@H](O)CO)C4)c23)C1` [Compound 141, (S)-1-(3-(4-(3-(1,2-dihydroxyethyl)azetidin-1-yl)-1-(4-(trifluoromethoxy)phenyl)-1H-pyrazolo[3,4-b]pyridin-3-yl)azetidin-1-yl)-2-fluoroprop-2-en-1-one]?
Answer: IC50 [1]: 27 nM; IC50 [2]: 2000 nM; IC50 [3]: 6.9 nM; IC50 [4]: 54 nM

Question: With `C=CC(=O)NCc1nn(-c2ccc(OC(F)(F)F)cc2)c2nccc([C@@H](O)CO)c12` (stereo in doubt) [Compound 16, N-((4-(1,2-dihydroxyethyl)-1-(4-(trifluoromethoxy)phenyl)-1H-pyrazolo[3,4-b]pyridin-3-yl)methyl)acrylamide] as the compound, how does the IC50 [1] read?
Answer: The IC50 was 230 nM.

Question: And the IC50 [2]?
Answer: The IC50 was 680 nM.

Question: What about the IC50 [3] of the same compound?
Answer: Its IC50 is 61 nM.

Question: What about the IC50 [4] of the same compound?
Answer: The IC50 was 120 nM.

Question: Which IC50 [1] does the source give for `C=CC(=O)NCc1nn(-c2ccc(OC(F)(F)F)cc2)c2nccc(-c3cnn(CCO)c3)c12` [Compound 35, N-((4-(1-(2-Hydroxyethyl)-1H-pyrazol-4-yl)-1-(4-(trifluoromethoxy)phenyl)-1H-pyrazolo[3,4-b]pyridin-3-yl)methyl)acrylamide] here?
Answer: The IC50 was 17 nM.

Question: And the IC50 [2]?
Answer: The IC50 was 640 nM.

Question: What about the IC50 [3] of the same compound?
Answer: Its IC50 is 14 nM.

Question: And the IC50 [4]?
Answer: The IC50 was 170 nM.

Question: With `C=CC(=O)NCc1nn(-c2ccc(OC(F)(F)F)cc2)c2nccc(-c3cnn(CCS(C)(=O)=O)c3)c12` [Compound 168, N-((4-(1-(2-(methylsulfonyl)ethyl)-1H-pyrazol-4-yl)-1-(4-(trifluoromethoxy)phenyl)-1H-pyrazolo[3,4-b]pyridin-3-yl)methyl)acrylamide] as the compound, how does the IC50 [1] read?
Answer: The IC50 was 140 nM.

Question: And the IC50 [2]?
Answer: Its IC50 is 50000 nM.

Question: And the IC50 [3]?
Answer: The IC50 was 49 nM.

Question: What about the IC50 [4] of the same compound?
Answer: The IC50 was 1100 nM.

Question: `C=CC(=O)NCc1nn(-c2ccc(OC(F)(F)F)cc2)c2nccc(O[C@H]3C[C@H](O)C3)c12` [Compound 67, N-((4-(trans-3-Hydroxycyclobutoxy)-1-(4-(trifluoromethoxy)phenyl)-1H-pyrazolo[3,4-b]pyridin-3-yl)methyl)acrylamide] was tested. Which IC50 [1] did it give?
Answer: The IC50 was 100 nM.

Question: What about the IC50 [2] of the same compound?
Answer: Its IC50 is 50000 nM.

Question: And the IC50 [3]?
Answer: The IC50 was 31 nM.

Question: And the IC50 [4]?
Answer: The IC50 was 365 nM.

Question: `C=CC(=O)NCc1nn(-c2ccc(OC(F)(F)F)cc2)c2nccc(NCCO)c12` [Compound 36, N-((4-((2-Hydroxyethyl)amino)-1-(4-(trifluoromethoxy)phenyl)-1H-pyrazolo[3,4-b]pyridin-3-yl)methyl)acrylamide] was tested. Which IC50 [1] did it give?
Answer: Its IC50 is 9.2 nM.

Question: And the IC50 [2]?
Answer: The IC50 was 500 nM.

Question: What about the IC50 [3] of the same compound?
Answer: Its IC50 is 5.8 nM.

Question: And the IC50 [4]?
Answer: The IC50 was 120 nM.

Question: How did the IC50 [1] turn out when `C=C(F)C(=O)N1CC(c2nn(-c3ccc(OC(F)(F)F)cc3F)c3nccc(CO)c23)C1` [Compound 185, 2-fluoro-1-[3-[1-[2-fluoro-4-(trifluoromethoxy)phenyl]-4-(hydroxymethyl)pyrazolo[3,4-b]pyridin-3-yl]azetidin-1-yl]prop-2-en-1-one] was run?
Answer: The IC50 was 57 nM.

Question: And the IC50 [2]?
Answer: Its IC50 is 260 nM.

Question: What about the IC50 [3] of the same compound?
Answer: The IC50 was 31 nM.

Question: And the IC50 [4]?
Answer: The IC50 was 120 nM.

Question: How did the IC50 [1] turn out when `O=C(C1=CCOC1)N1CC(c2nn(-c3ccc(OC(F)(F)F)cc3)c3nccc(CO)c23)C1` [Compound 152, (2,5-Dihydrofuran-3-yl)(3-(4-(hydroxymethyl)-1-(4-(trifluoromethoxy)phenyl)-1H-pyrazolo[3,4-b]pyridin-3-yl)azetidin-1-yl)methanone] was run?
Answer: Its IC50 is 220 nM.

Question: And the IC50 [2]?
Answer: The IC50 was 1200 nM.

Question: What about the IC50 [3] of the same compound?
Answer: Its IC50 is 140 nM.

Question: And the IC50 [4]?
Answer: The IC50 was 810 nM.

Question: Which IC50 [1] does the source give for `C=CC(=O)NCc1nn(-c2ccc(S(F)(F)(F)(F)F)cc2)c2cccnc12` [Compound 12, N-((1-(4-(pentafluoro-λ^6-sulfanyl)phenyl)-1H-pyrazolo[4,3-b]pyridin-3-yl)methyl)acrylamide] here?
Answer: The IC50 was 48 nM.

Question: What about the IC50 [2] of the same compound?
Answer: Its IC50 is 630 nM.

Question: What about the IC50 [3] of the same compound?
Answer: Its IC50 is 43 nM.

Question: And the IC50 [4]?
Answer: The IC50 was 2800 nM.

Question: For `O=C(/C=C\Cl)NCc1nn(-c2ccc(OC(F)(F)F)cc2)c2nccc([C@H](O)CO)c12` [Compound 53, (S,Z)-3-chloro-N-((4-(1,2-dihydroxyethyl)-1-(4-(trifluoromethoxy)phenyl)-1H-pyrazolo[3,4-b]pyridin-3-yl)methyl)acrylamide], which IC50 [1] is on record?
Answer: The IC50 was 45 nM.

Question: What about the IC50 [2] of the same compound?
Answer: The IC50 was 50000 nM.

Question: What about the IC50 [3] of the same compound?
Answer: The IC50 was 3.5 nM.

Question: What about the IC50 [4] of the same compound?
Answer: Its IC50 is 36 nM.

Question: How did the IC50 [1] turn out when `C=C(F)C(=O)N1CC(c2nn(-c3ccc(OC(F)(F)F)cc3)c3nccc(N4CC[C@@H](O)C4=O)c23)C1` [Compound 125, (R)-1-(3-(1-(2-fluoroacryloyl)azetidin-3-yl)-1-(4-(trifluoromethoxy)phenyl)-1H-pyrazolo[3,4-b]pyridin-4-yl)-3-hydroxypyrrolidin-2-one] was run?
Answer: Its IC50 is 800 nM.

Question: What about the IC50 [2] of the same compound?
Answer: The IC50 was 1700 nM.

Question: And the IC50 [3]?
Answer: Its IC50 is 44 nM.

Question: What about the IC50 [4] of the same compound?
Answer: The IC50 was 870 nM.

Question: For `C=CC(=O)NCc1nn(-c2ccc(OC(F)(F)F)cc2)c2nccc(-c3cnn(C)c3)c12` [Compound 164, N-((4-(1-methyl-1H-pyrazol-4-yl)-1-(4-(trifluoromethoxy)phenyl)-1H-pyrazolo[3,4-b]pyridin-3-yl)methyl)acrylamide], which IC50 [1] is on record?
Answer: Its IC50 is 47.9 nM.

Question: And the IC50 [2]?
Answer: Its IC50 is 2040 nM.

Question: And the IC50 [3]?
Answer: Its IC50 is 32 nM.

Question: And the IC50 [4]?
Answer: The IC50 was 129 nM.

Question: For `O=C(/C=C/Cl)NCc1nn(-c2ccc(OC(F)(F)F)cc2)c2nccc(CO)c12` [Compound 37, (E)-3-Chloro-N-((4-(hydroxymethyl)-1-(4-(trifluoromethoxy)phenyl)-1H-pyrazolo[3,4-b]pyridin-3-yl)methyl)acrylamide], which IC50 [1] is on record?
Answer: The IC50 was 6.9 nM.

Question: And the IC50 [2]?
Answer: Its IC50 is 33 nM.

Question: And the IC50 [3]?
Answer: Its IC50 is 3.2 nM.

Question: What about the IC50 [4] of the same compound?
Answer: The IC50 was 14 nM.

Question: Which IC50 [1] does the source give for `O=C(/C=C/CF)N1CC(c2nn(-c3ccc(OC(F)(F)F)cc3)c3ccnc(N4CC(O)C4)c23)C1` [Compound 137, (E)-4-fluoro-1-(3-(4-(3-hydroxyazetidin-1-yl)-1-(4-(trifluoromethoxy)phenyl)-1H-pyrazolo[4,3-c]pyridin-3-yl)azetidin-1-yl)but-2-en-1-one] here?
Answer: Its IC50 is 72 nM.

Question: And the IC50 [2]?
Answer: Its IC50 is 5200 nM.

Question: And the IC50 [3]?
Answer: The IC50 was 26 nM.

Question: And the IC50 [4]?
Answer: The IC50 was 360 nM.

Question: What does the source list for `C=CC(=O)NCc1nn(-c2ccc(OC(F)(F)F)cc2)c2nccc(NC(=O)CO)c12` [Compound 24, N-((4-(2-Hydroxyacetamido)-1-(4-(trifluoromethoxy)phenyl)-1H-pyrazolo[3,4-b]pyridin-3-yl)methyl)acrylamide]?
Answer: IC50 [1]: 18.5 nM; IC50 [2]: 405 nM; IC50 [3]: 45.5 nM; IC50 [4]: 130 nM

Question: For `C=CC(=O)NCc1nn(-c2ccc(OC(F)(F)F)cc2)c2nccc(N[C@H]3C[C@H](O)C3)c12` [Compound 85, N-((4-((3-hydroxycyclobutyl)amino)-1-(4-(trifluoromethoxy)phenyl)-1H-pyrazolo[3,4-b]pyridin-3-yl)methyl)acrylamide], which IC50 [1] is on record?
Answer: The IC50 was 140 nM.

Question: And the IC50 [2]?
Answer: Its IC50 is 15000 nM.

Question: What about the IC50 [3] of the same compound?
Answer: The IC50 was 170 nM.

Question: What about the IC50 [4] of the same compound?
Answer: Its IC50 is 480 nM.

Question: With `C=C(F)C(=O)N1CC(c2nn(-c3ccc(OC(F)(F)F)cc3)c3nccc(-c4cnn(C5CC5)c4)c23)C1` [Compound 177, 1-(3-(4-(1-cyclopropyl-1H-pyrazol-4-yl)-1-(4-(trifluoromethoxy)phenyl)-1H-pyrazolo[3,4-b]pyridin-3-yl)azetidin-1-yl)-2-fluoroprop-2-en-1-one] as the compound, how does the IC50 [1] read?
Answer: Its IC50 is 86 nM.

Question: What about the IC50 [2] of the same compound?
Answer: Its IC50 is 50000 nM.

Question: And the IC50 [3]?
Answer: The IC50 was 120 nM.

Question: What about the IC50 [4] of the same compound?
Answer: The IC50 was 890 nM.
